In patent publication US20250382305A1 (PTC THERAPEUTICS, INC., priority 2022, published 2025):
pIC50: −log10 of the molar value.

Assays:
[1] = test system: Total ATXN3 (tATXN3) protein; test: Endogenous Total ATXN3 (tATXN3) Protein Assay (MSD immunoassay of cell lysates); type: cell-based; settings: average IC50, total ATXN3 protein in cell lysate after 48 h with compound (Table 1)
Method in brief: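 Cells in DMEM/10% FBS were plated at 10,000 per well onto 7-point, 3.16-fold compound dilutions in duplicate for 48 h at 37° C, then lysed. Total ATXN3 in lysates was measured by MSD sandwich immunoassay: mouse anti-ATXN3 capture, rabbit anti-ATXN3 detection, SULFO-TAG anti-rabbit. Average IC50 was reported in star bins.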

ATXN3 pre-mRNA = test: RT-qPCR Assay to Quantify Exon 4 Skipping in ATXN3 pre-mRNA in Cells; type: cell-based; settings: percent exon 4 skipping in ATXN3 pre-mRNA, RT-qPCR of cell lysates; average IC50
Method in brief: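 Cells plated at 10,000/well onto a 7-point, 3.16-fold DMSO dilution series (duplicates), incubated 24 h at 37 °C, then lysed. Exon 4 skipping measured by one-step RT-qPCR (48 °C RT, 40 cycles); IC50 interpolated from dose-response fit of percent skipping.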

| Substance | pIC50 [1] | pIC50 (ATXN3 pre-mRNA) |
| --- | --- | --- |
| 4-(2-((1R,6R)-6-aminocyclohex-3-en-1-yl)-5-chloro-7-((thiophen-2-ylmethyl)amino)thieno[3,2-b]pyridin-3-yl)but-3-yn-1-ol and 4-(2-((1S,6S)-6-aminocyclohex-3-en-1-yl)-5-chloro-7-((thiophen-2-ylmethyl)amino)thieno[3,2-b]pyridin-3-yl)but-3-yn-1-ol [Compound 177] | ≥ 7.52 | ≥ 7.52 |
| 5-(2-chloro-6-((1R,6R)-6-(methylamino)cyclohex-3-en-1-yl)-4-((thiophen-2-ylmethyl)amino)thieno[3,2-d]pyrimidin-7-yl)pent-4-yn-1-ol and 5-(2-chloro-6-((1S,6S)-6-(methylamino)cyclohex-3-en-1-yl)-4-((thiophen-2-ylmethyl)amino)thieno[3,2-d]pyrimidin-7-yl)pent-4-yn-1-ol [Compound 293] | 6.52 to 7.52 | 6.52 to 7.52 |
| 5-(5-chloro-2-((1R,6R)-6-(dimethylamino)cyclohex-3-en-1-yl)-7-((thiophen-2-ylmethyl)amino)thieno[3,2-b]pyridin-3-yl)pent-4-yn-1-ol and 5-(5-chloro-2-((1S,6S)-6-(dimethylamino)cyclohex-3-en-1-yl)-7-((thiophen-2-ylmethyl)amino)thieno[3,2-b]pyridin-3-yl)pent-4-yn-1-ol [Compound 454] | 6.00 to 6.52 | 6.00 to 6.52 |
| 5-(5-chloro-2-((1R,6R)-6-(methylamino)cyclohex-3-en-1-yl)-7-((thiophen-2-ylmethyl)amino)thieno[3,2-b]pyridin-3-yl)pent-4-yn-1-ol and 5-(5-chloro-2-((1S,6S)-6-(methylamino)cyclohex-3-en-1-yl)-7-((thiophen-2-ylmethyl)amino)thieno[3,2-b]pyridin-3-yl)pent-4-yn-1-ol [Compound 288] | 6.52 to 7.52 | 6.52 to 7.52 |
| 5-(5-chloro-2-((2R,3R)-3-(methylamino)tetrahydro-2H-pyran-2-yl)-7-((thiophen-2-ylmethyl)amino)thieno[3,2-b]pyridin-3-yl)pent-4-yn-1-ol and 5-(5-chloro-2-((2S,3S)-3-(methylamino)tetrahydro-2H-pyran-2-yl)-7-((thiophen-2-ylmethyl)amino)thieno[3,2-b]pyridin-3-yl)pent-4-yn-1-ol [Compound 309] | 6.52 to 7.52 | 6.52 to 7.52 |
| 5-chloro-3-iodo-2-((1R,6R)-6-(methylamino)cyclohex-3-en-1-yl)-N-(thiophen-2-ylmethyl)thieno[3,2-b]pyridin-7-amine and 5-chloro-3-iodo-2-((1S,6S)-6-(methylamino)cyclohex-3-en-1-yl)-N-(thiophen-2-ylmethyl)thieno[3,2-b]pyridin-7-amine [Compound 387] | 6.52 to 7.52 | 6.00 to 6.52 |
| 6-((1R,2R)-2-aminocyclohexyl)-N-benzyl-2-chloro-7-methylthieno[3,2-d]pyrimidin-4-amine or 6-((1S,2S)-2-aminocyclohexyl)-N-benzyl-2-chloro-7-methylthieno[3,2-d]pyrimidin-4-amine [Compound 43] | < 6.00 | < 6.00 |
| 6-((1R,2R)-2-aminocyclohexyl)-N-benzyl-2-chloro-7-methylthieno[3,2-d]pyrimidin-4-amine or 6-((1S,2S)-2-aminocyclohexyl)-N-benzyl-2-chloro-7-methylthieno[3,2-d]pyrimidin-4-amine [Compound 48] | 6.52 to 7.52 | 6.52 to 7.52 |
| 6-((1R,6R)-6-aminocyclohex-3-en-1-yl-2,2,3,4,5,5-d6)-2-chloro-N-(furan-2-ylmethyl)-7-methylthieno[3,2-d]pyrimidin-4-amine and 6-((1S,6S)-6-aminocyclohex-3-en-1-yl-2,2,3,4,5,5-d6)-2-chloro-N-(furan-2-ylmethyl)-7-methylthieno[3,2-d]pyrimidin-4-amine [Compound 297] | 6.52 to 7.52 | 6.52 to 7.52 |
| 6-((1R,6R)-6-aminocyclohex-3-en-1-yl-2,2,3,4,5,5-d6)-7-bromo-2-chloro-N-(furan-2-ylmethyl)thieno[3,2-d]pyrimidin-4-amine and 6-((1S,6S)-6-aminocyclohex-3-en-1-yl-2,2,3,4,5,5-d6)-7-bromo-2-chloro-N-(furan-2-ylmethyl)thieno[3,2-d]pyrimidin-4-amine [Compound 200] | ≥ 7.52 | ≥ 7.52 |
| 6-((1R,6R)-6-aminocyclohex-3-en-1-yl-2,2,3,4,5,5-d6)-7-bromo-2-chloro-N-(thiophen-2-ylmethyl)thieno[3,2-d]pyrimidin-4-amine [Compound 372] | 6.52 to 7.52 | 6.52 to 7.52 |
| 6-((1S,2S)-2-aminocyclohexyl)-2,7-dichloro-5-(difluoromethyl)-N-(furan-2-ylmethyl)-5H-pyrrolo[3,2-d]pyrimidin-4-amine and 6-((1R,2R)-2-aminocyclohexyl)-2,7-dichloro-5-(difluoromethyl)-N-(furan-2-ylmethyl)-5H-pyrrolo[3,2-d]pyrimidin-4-amine [Compound 334] | 6.52 to 7.52 | 6.52 to 7.52 |
| 6-((1S,2S)-2-aminocyclohexyl)-N-(but-2-yn-1-yl)-2-chloro-7-iodothieno[3,2-d]pyrimidin-4-amine [Compound 286] | 6.52 to 7.52 | 6.52 to 7.52 |
| 6-((1S,6S)-6-aminocyclohex-3-en-1-yl)-4-((furan-2-ylmethyl)amino)-7-methylthieno[3,2-d]pyrimidine-2-carbonitrile [Compound 282] | 6.52 to 7.52 | 6.52 to 7.52 |
| 6-((1S,6S)-6-aminocyclohex-3-en-1-yl-2,2,3,4,5,5-d6)-7-bromo-2-chloro-N-(thiophen-2-ylmethyl)thieno[3,2-d]pyrimidin-4-amine [Compound 183] | ≥ 7.52 | ≥ 7.52 |
| 6-((2R,3R)-3-aminotetrahydro-2H-pyran-2-yl)-2-chloro-N-(furan-2-ylmethyl)-7-iodothieno[3,2-d]pyrimidin-4-amine and 6-((2S,3S)-3-aminotetrahydro-2H-pyran-2-yl)-2-chloro-N-(furan-2-ylmethyl)-7-iodothieno[3,2-d]pyrimidin-4-amine [Compound 243] | ≥ 7.52 | ≥ 7.52 |
| 6-((2S,3S)-3-aminotetrahydro-2H-pyran-2-yl)-7-bromo-2-chloro-5-(difluoromethyl)-N-(furan-2-ylmethyl)-5H-pyrrolo[3,2-d]pyrimidin-4-amine [Compound 215] | ≥ 7.52 | ≥ 7.52 |
| 6-((2S,3S)-3-aminotetrahydro-2H-pyran-2-yl)-N-benzyl-2,7-dichloro-5-(difluoromethyl)-5H-pyrrolo[3,2-d]pyrimidin-4-amine and 6-((2R,3R)-3-aminotetrahydro-2H-pyran-2-yl)-N-benzyl-2,7-dichloro-5-(difluoromethyl)-5H-pyrrolo[3,2-d]pyrimidin-4-amine [Compound 392] | 6.00 to 6.52 | 6.52 to 7.52 |
| 6-((3R,4S)-3-aminotetrahydro-2H-pyran-4-yl)-2,7-dichloro-N-(furan-2-ylmethyl)thieno[3,2-d]pyrimidin-4-amine and 6-((3S,4R)-3-aminotetrahydro-2H-pyran-4-yl)-2,7-dichloro-N-(furan-2-ylmethyl)thieno[3,2-d]pyrimidin-4-amine [Compound 354] | 6.52 to 7.52 | 6.52 to 7.52 |
| 6-((3R,4S)-3-aminotetrahydro-2H-pyran-4-yl)-2-chloro-N-(furan-2-ylmethyl)-7-((trimethylsilyl)ethynyl)thieno[3,2-d]pyrimidin-4-amine and 6-((3S,4R)-3-aminotetrahydro-2H-pyran-4-yl)-2-chloro-N-(furan-2-ylmethyl)-7-((trimethylsilyl)ethynyl)thieno[3,2-d]pyrimidin-4-amine [Compound 317] | 6.52 to 7.52 | 6.52 to 7.52 |
| 6-((3R,4S)-3-aminotetrahydro-2H-pyran-4-yl)-2-chloro-N-(furan-2-ylmethyl)-7-iodothieno[3,2-d]pyrimidin-4-amine and 6-((3S,4R)-3-aminotetrahydro-2H-pyran-4-yl)-2-chloro-N-(furan-2-ylmethyl)-7-iodothieno[3,2-d]pyrimidin-4-amine [Compound 245] | ≥ 7.52 | ≥ 7.52 |
| 6-((3R,4S)-3-aminotetrahydro-2H-pyran-4-yl)-2-chloro-N-(furan-2-ylmethyl)-7-vinylthieno[3,2-d]pyrimidin-4-amine and 6-((3S,4R)-3-aminotetrahydro-2H-pyran-4-yl)-2-chloro-N-(furan-2-ylmethyl)-7-vinylthieno[3,2-d]pyrimidin-4-amine [Compound 390] | 6.00 to 6.52 | 6.52 to 7.52 |
| 6-((3R,4S)-3-aminotetrahydro-2H-pyran-4-yl)-7-bromo-2-chloro-N-(furan-2-ylmethyl)thieno[3,2-d]pyrimidin-4-amine and 6-((3S,4R)-3-aminotetrahydro-2H-pyran-4-yl)-7-bromo-2-chloro-N-(furan-2-ylmethyl)thieno[3,2-d]pyrimidin-4-amine [Compound 339] | 6.52 to 7.52 | 6.52 to 7.52 |
| 6-((3R,4S)-3-aminotetrahydro-2H-pyran-4-yl)-7-bromo-2-chloro-N-(thiophen-2-ylmethyl)thieno[3,2-d]pyrimidin-4-amine and 6-((3S,4R)-3-aminotetrahydro-2H-pyran-4-yl)-7-bromo-2-chloro-N-(thiophen-2-ylmethyl)thieno[3,2-d]pyrimidin-4-amine [Compound 347] | 6.52 to 7.52 | 6.52 to 7.52 |
